Assay results taken from patent US20130131321A1, “LIGANDS FOR ANTIBODY AND Fc-FUSION PROTEIN PURIFICATION BY AFFINITY CHROMATOGRAPHY” (GRAFFINITY PHARMACEUTICALS GMBH, priority 2010, published 2013).

Assays:
Palivizumab = assay: Microtiter plate chromatography of resins, Palivizumab (bound, yield); format: binding, humanized
Experimental: (§1) Resins were assessed in packed mode by microtiter plate chromatography. For each column, approximately 30 μl of resin were transferred to a 384-well filter plate and sealed with appropriate top frits.
(§2) Columns were equilibrated with 6.7 column volumes (cv) of phosphate buffered saline (0.15 M NaCl, 20 mM sodium phosphate, pH 7.3; PBS) prior to injection. Either 3.3 cv of whole IgGs dissolved at 0.75 mg ml^−1, Fab or Fc fragments dissolved at 0.25 mg ml^−1 (all three in PBS) or host cell proteins (HCP) were injected onto columns. Antibody fragments of Bevacizumab (Fab and Fc) were prepared by cleavage of whole IgG with papain protease (3) according to the protocol of the manufacturer. […] Volumes transferred were spun through columns at 50 g for 1-2 min. During injection of samples, acceleration was reduced to 10 g and centrifugation time increased to 5-10 min. Effluent fractions were collected in 384-well plates and concentrations of protein analyzed by Bradford assay. Protein masses mi, mft and me (see below) were calculated as the product of fraction volume and measured protein concentration.
(§3) The fraction of ‘bound’ protein was calculated as the difference between the total mass of protein injected mi and the mass of protein detected in the flowthrough mft, divided by the total mass of protein injected.
(§4) The ‘yield’ of protein was calculated as the mass of protein eluted me, divided by the mass of protein injected mi.
(§5) the fraction of ‘bound’ protein and the ‘yield’ of protein were calculated for each resin based on data for whole IgG-antibodies. In the case of Bevacizumab fragments and host cell proteins, only the fraction of ‘bound’ protein is given. Selectivity of resins was calculated from data for Bevacizumab Whole IgG and host cell proteins. Due to limited experimental precision, selectivity was truncated beyond values of 10.

Bevacizumab [1] = assay: Microtiter plate chromatography of resins, Bevacizumab whole IgG (bound, yield, selectivity); format: binding, humanized
Experimental: as §1, §2, §3, §4
(§6) The ‘selectivity’ of resins was calculated as the fraction of bound antibody BAb, divided by the fraction of bound host cell proteins BHCP.
as §5

Bevacizumab [2] = molecular target: T1, Bevacizumab (Homo sapiens, UniProt P01857); assay: as above; format: binding, humanized; conditions: for Bevacizumab IgG Bound (%): fraction of whole IgG Bevacizumab bound to resin; for Bevacizumab IgG Yield (%): mass of whole IgG Bevacizumab eluted / mass injected
T1 construct: fused on or other part: humanised anti-VEGF-A VH domain N-terminal of the gamma-1 constant region (engineered, no UniProt entry)
Experimental: as §1, §2, §3, §4, §6, §5

Tocilizumab = assay: Microtiter plate chromatography of resins, Tocilizumab (bound, yield); format: binding, humanized
Experimental: as §1, §2, §3, §4, §5

host cell proteins (HCP) = assay: Microtiter plate chromatography of resins, host cell proteins (bound); format: binding, CHO; conditions: host cell proteins
Experimental: Flowthrough from protein A chromatography (referred to as host cell proteins) was derived from the supernatant of antibody-producing CHO cell culture in serum-free medium.
as §1, §2, §3, §5

[3] = test system: human poly-IgG (h-poly-IgG); assay: Microtiter plate chromatography of resins, human poly-IgG (bound, yield); format: binding
Experimental: as §1, §2, §3, §4, §5

SMILES | Palivizumab Bound (%) (Palivizumab) | Palivizumab Yield (%) (Palivizumab) | Selectivity (Bevacizumab [1]) | Bevacizumab IgG Bound (%) (Bevacizumab [2]) | Bevacizumab IgG Yield (%) (Bevacizumab [2]) | Tocilizumab Bound (%) (Tocilizumab) | Tocilizumab Yield (%) (Tocilizumab) | HCP Bound (%) (host cell proteins (HCP)) | h-poly-IgG Bound (%) [3] | h-poly-IgG Yield (%) [3] | selectivity index (Bevacizumab [1]; fraction of bound Bevacizumab whole IgG divided by fraction of bound HCP, truncated beyond 10)
Cn1nc(C(=O)Nc2ccc(C(=O)NCCCN)cc2)cc1-c1ccco1 [Ligand L18, 4-[5-(2-Furyl)-1-methylpyrazol-3-yl]carboxamidobenzoic acid N-(3-aminopropyl)amide] | 54% | 43% | 2.2 | 100% | 95% | 76% | 76% | 46% | 68% | 71% | 
Cn1nc(C(=O)Nc2nc(C(=O)NCCCN)cs2)cc1-c1cccs1 [Ligand L19, 2-[1-Methyl-5-(2-thienyl)pyrazol-3-yl]carboxamidothiazole-4-carboxylic acid N-(3-aminopropyl)amide] | 18% | 16% | 1.8 | 100% | 99% | 47% | 48% | 56% | 49% | 48% | 
COc1ccc(NC(=O)c2cc(-c3ccco3)[nH]n2)cc1C(=O)NCCCN [Ligand L20, 5-[5-(2-Furyl)pyrazol-3-yl]carboxamido-2-methoxybenzoic acid N-(3-aminopropyl)amide] | 97% | 84% | 2.1 | 100% | 96% | 100% | 96% | 47% | 93% | 82% | 
NCCCNC(=O)c1cccc(C(=O)Nc2cc(-c3ccco3)[nH]n2)c1 [Ligand L21, 3-{N-[5-(2-Furyl)pyrazol-3-yl]carbamoyl}benzoic acid N′-(3-aminopropyl)amide] | 26% | 26% | 2.0 | 99% | 95% | 52% | 53% | 50% | 54% | 61% | 
COc1ccc(NC(=O)c2cn(C)c3ccccc23)cc1C(=O)NCCCN [Ligand L25, 2-Methoxy-5-(1-methylindol-3-yl)carboxamidobenzoic acid N-(3-aminopropyl)amide] | 82% | 78% | 2.2 | 100% | 95% | 100% | 93% | 46% | 93% | 81% | 
COc1ccc(NC(=O)c2c[nH]c3ccccc23)cc1C(=O)NCCCN [Ligand L26, 5-(Indol-3-yl)carboxamido-2-methoxybenzoic acid N-(3-aminopropyl)amide] | 58% | 59% | 2.4 | 100% | 94% | 77% | 84% | 42% | 75% | 74% | 
COc1ccc(NC(=O)c2cc(-c3ccco3)n(C)n2)cc1C(=O)N(C)CCCN [Ligand L28, 5-[5-(2-Furyl)-1-methylpyrazol-3-yl]carboxamido-2-methoxybenzoic acid N-(3-aminopropyl)-N-methylamide] | 55% | 50% | 2.9 | 100% | 81% | 63% | 61% | 35% | 58% | 44% | 
CCOc1ccc(NC(=O)c2cc(-c3ccco3)n(C)n2)cc1C(=O)NCCCN [Ligand L29, 5-[5-(2-Furyl)-1-methylpyrazol-3-yl]carboxamido-2-ethoxybenzoic acid N-(3-aminopropyl)amide] | 100% | 88% | 2.4 | 100% | 84% | 100% | 96% | 43% | 95% | 70% | 
Cn1nc(C(=O)Nc2ccc(O)c(C(=O)NCCCN)c2)cc1-c1ccco1 [Ligand L30, 5-[5-(2-Furyl)-1-methylpyrazol-3-yl]carboxamido-2-hydroxybenzoic acid N-(3-aminopropyl)amide] | 68% | 66% | 2.4 | 100% | 93% | 83% | 79% | 42% | 74% | 53% | 
COc1ccc(NC(=O)c2onc3ccccc23)cc1C(=O)NCCCN [Ligand L31, 5-(Benzo[c]isoxazol-3-yl)carboxamido-2-methoxybenzoic acid N-(3-aminopropyl)amide] | 99% | 94% | 4.4 | 100% | 96% | 100% | 98% | 23% | 95% | 74% | 4.4
COc1ccc(NC(=O)c2occ3ccccc23)cc1C(=O)NCCCN [Ligand L32, 5-(Benzo[c]furan-1-yl)carboxamido-2-methoxybenzoic acid N-(3-aminopropyl)amide] | 100% | 95% | 2.0 | 100% | 87% | 100% | 95% | 49% | 95% | 74% | 
COc1ccc(NC(=O)c2cc(C)n(C)n2)cc1C(=O)NCCCN [Ligand L33, 5-(1,5-Dimethylpyrazol-3-yl)carboxamido-2-methoxybenzoic acid N-(3-aminopropyl)amide] | 33% | 31% | 5.8 | 99% | 83% | 48% | 51% | 17% | 51% | 39% | 
COc1ccc(NC(=O)c2cc(C(F)(F)F)n(C)n2)cc1C(=O)NCCCN [Ligand L34, 2-Methoxy-5-[1-methyl-5-(trifluoromethyl)pyrazol-3-yl]carboxamidobenzoic acid N-(3-aminopropyl)amide] | 73% | 72% | 2.6 | 100% | 89% | 85% | 80% | 39% | 78% | 61% | 
COc1ccc(NC(=O)c2nccc3ccccc23)cc1C(=O)NCCCN [Ligand L35, 5-(1-Isoquinolinyl)carboxamido-2-methoxybenzoic acid N-(3-aminopropyl)amide] | 100% | 95% | 2.0 | 100% | 96% | 100% | 92% | 51% | 95% | 76% | 
COc1ccc(NC(=O)c2n[nH]c3ccccc23)cc1C(=O)NCCCN [Ligand L36, 5-(Indazol-3-yl)carboxamido-2-methoxybenzoic acid N-(3-aminopropyl)amide] | 100% | 100% | 1.9 | 100% | 100% | 100% | 95% | 54% | 95% | 77% | 
